The source of these data is US20230077362A1 (CORTEVA AGRISCIENCE LLC, priority 2019, published 2023).

Where two headings read alike, the source gives them in different places.

Data set [1] concerns Beet Armyworm (Spodoptera exigua) ("BAW"), second instar larvae. Briefly: Bioassay on beet armyworm (BAW), 128-well diet tray assay. The data set is classed as in vivo. As to conditions: for pest or weed control at 50 µg/cm2: Spodoptera exigua; for BAW rating: C = not tested, D = no activity noticed. An outline of the steps:
(§1)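 After sealing with a clear self-adhesive lid, the trays are incubated at 25° C. with 14 h light and 10 h dark for 5 to 7 days; mortality in each well is recorded as a percentage and averaged across the eight wells.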

Data set [2] relates to Cabbage Looper (Trichoplusia ni) ("CL"), second instar larvae. Briefly: Bioassay on cabbage looper (CL), 128-well diet tray assay. The data set is classed as in vivo. As to conditions: for CL rating: C = not tested, D = no activity noticed. Put shortly: as §1
The mark [3] stands for this setting: Trichoplusia ni, read-out: CL rating.
The mark [4] stands for this setting: read-out: BAW (Biological Results, rating).
Where [5] appears, read: Trichoplusia ni, read-out: CL (Biological Results, rating).

With `Cc1cccc(N2C(=O)CS/C2=N\C(=O)Nc2ccc(-n3cnc(-c4ccc(C(F)(F)F)cc4)n3)cc2F)c1COCC(F)(F)F` [Compound J704, (Z)-1-(2-Fluoro-4-(3-(4-(trifluoromethyl)phenyl)-1H-1,2,4-triazol-1-yl)phenyl)-3-(3-(3-methyl-2-((2,2,2-trifluoroethoxy)methyl)phenyl)-4-oxothiazolidin-2-ylidene)urea], the pest or weed control at 50 µg/cm2 in data set [1] (read-out: BAW rating) and in data set [2] (setting [3]) was 50 to 100% in each case.

With `CCCc1ccc(C)cc1N1C(=O)CS/C1=N\C(=O)Nc1ccc(-c2ncn(-c3ccc(C(F)(F)F)cn3)n2)cc1F` [Compound J454], the BAW rating entry in data set [1] (Table ABC, species BAW) is “A (50-100)”. Also, the CL rating result in data set [2] (Table ABC, species CL) was “A (50-100)”.

Turning to `CC(C)c1ccc(N(C)C)cc1N1C(=O)CS/C1=N\C(=O)Nc1ccc(-c2nnc(-c3ccc(OC(F)(F)F)cc3)s2)cc1F` [Compound J506, (Z)-1-(3-(5-(Dimethylamino)-2-isopropylphenyl)-4-oxothiazolidin-2-ylidene)-3-(2-fluoro-4-(5-(4-(trifluoromethoxy)phenyl)-1,3,4-thiadiazol-2-yl)phenyl)urea], the pest or weed control at 50 µg/cm2 in data set [1] (read-out: BAW rating) and in data set [2] (setting [3]) was 50 to 100% in each case.

On to `Cc1cc(-c2ncn(-c3ccc(S(=O)(=O)C(F)(F)F)cc3)n2)ccc1NC(=O)/N=C1\SCC(=O)N1c1cc(N(C)C)c(F)cc1C(C)C` [Compound J375, (Z)-1-(3-(5-(Dimethylamino)-4-fluoro-2-isopropylphenyl)-4-oxothiazolidin-2-ylidene)-3-(2-methyl-4-(1-(4-((trifluoromethyl)sulfonyl)phenyl)-1H-1,2,4-triazol-3-yl)phenyl)urea], for which the pest or weed control at 50 µg/cm2 in data set [1] (read-out: BAW rating) and in data set [2] (setting [3]) was 50 to 100% in each case.

Consider `Cc1ccc(OCCC(F)(F)F)c(N2C(=O)CS/C2=N\C(=O)Nc2ccc(-c3ncn(-c4ccc(OC(F)(F)F)cn4)n3)cc2F)c1` [Compound J257, (Z)-1-(2-Fluoro-4-(1-(5-(trifluoromethoxy)pyridin-2-yl)-1H-1,2,4-triazol-3-yl)phenyl)-3-(3-(5-methyl-2-(3,3,3-trifluoropropoxy)phenyl)-4-oxothiazolidin-2-ylidene)urea], for which the pest or weed control at 50 µg/cm2 in data set [1] (setting [4]) and in data set [2] (setting [5]) was 50 to 100% throughout.

Turning to `Cc1ccc(OCCC(F)(F)F)c(N2C(=O)CS/C2=N\C(=O)Nc2ccc(-c3ncn(-c4ccc(OC(F)(F)F)cc4)n3)cc2C)c1` [Compound J56, (Z)-1-(3-(5-Methyl-2-(3,3,3-trifluoropropoxy)phenyl)-4-oxothiazolidin-2-ylidene)-3-(2-methyl-4-(1-(4-(trifluoromethoxy)phenyl)-1H-1,2,4-triazol-3-yl)phenyl)urea], the pest or weed control at 50 µg/cm2 in data set [1] (setting [4]) and in data set [2] (setting [5]) was 50 to 100% in each case.

Take `Cc1ccc(COCC(C)(F)F)c(N2C(=O)CS/C2=N\C(=O)Nc2ccc(-c3ncn(-c4ccc(OC(F)(F)F)cc4)n3)cc2C)c1` [Compound J534]: the BAW rating result in data set [1] (Table ABC, species BAW) was “A (50-100)”. Besides, in data set [2] (Table ABC, species CL), the CL rating result is listed as “A (50-100)”.

Consider `Cc1ccc(OCCC(F)(F)F)c(N2C(=O)CS/C2=N\C(=O)Nc2ccc(-c3ncn(-c4ccc(S(F)(F)(F)(F)F)cc4)n3)cc2C#N)c1` [Compound J584, (Z)-1-(2-Cyano-4-(1-(4-(pentafluoro-λ^6-sulfaneyl)phenyl)-1H-1,2,4-triazol-3-yl)phenyl)-3-(3-(5-methyl-2-(3,3,3-trifluoropropoxy)phenyl)-4-oxothiazolidin-2-ylidene)urea], for which the pest or weed control at 50 µg/cm2 in data set [1] (read-out: BAW rating) and in data set [2] (setting [3]) was 50 to 100% each time.

Take `COC(C)c1ccc(C)cc1N1C(=O)CS/C1=N\C(=O)Nc1ccc(-c2cn(-c3ccc(C(F)(F)F)cc3)cn2)cc1C` (centres unmarked) [Compound J525, (Z)-1-(3-(2-(1-Methoxyethyl)-5-methylphenyl)-4-oxothiazolidin-2-ylidene)-3-(2-methyl-4-(1-(4-(trifluoromethyl)phenyl)-1H-imidazol-4-yl)phenyl)urea]: the pest or weed control at 50 µg/cm2 in data set [1] (read-out: BAW rating) and in data set [2] (setting [3]) was 50 to 100% throughout.

Regarding `Cc1ccc(COCCC(F)(F)F)c(N2C(=O)CS/C2=N\C(=O)Nc2ccc(-c3ncn(-c4ccccc4)n3)cc2C)c1` [Compound J781, (Z)-1-(3-(5-Methyl-2-((3,3,3-trifluoropropoxy)methyl)phenyl)-4-oxothiazolidin-2-ylidene)-3-(2-methyl-4-(1-phenyl-1H-1,2,4-triazol-3-yl)phenyl)urea], the pest or weed control at 50 µg/cm2 in data set [1] (read-out: BAW rating) and in data set [2] (setting [3]) was 50 to 100% in each case.

For the molecule `CC(C)c1ccc(N(C)C)cc1N1C(=O)CS/C1=N\C(=O)Nc1ccc(-c2ncn(-c3ccc(OC(F)(F)F)cn3)n2)cc1C(F)(F)F` [Compound J275, (Z)-1-(3-(5-(Dimethylamino)-2-isopropylphenyl)-4-oxothiazolidin-2-ylidene)-3-(4-(1-(5-(trifluoromethoxy)pyridin-2-yl)-1H-1,2,4-triazol-3-yl)-2-(trifluoromethyl)phenyl)urea], the pest or weed control at 50 µg/cm2 in data set [1] (setting [4]) and in data set [2] (setting [5]) was 50 to 100% throughout.

As to `Cc1ccc(COCCC(F)(F)F)c(N2C(=O)CS/C2=N\C(=O)Nc2ccc(-c3ncn(-c4ccc(C(F)(F)F)cc4)n3)cc2F)c1` [Compound J547], the BAW rating entry in data set [1] (Table ABC, species BAW) was “A (50-100)”. Further, the CL rating result in data set [2] (Table ABC, species CL) is “A (50-100)”.

For the molecule `Cc1ccc(OCCCC(F)(F)F)c(N2C(=O)CS/C2=N\C(=O)Nc2c(F)cc(-c3ncn(-c4ccc(OC(F)(F)F)cc4)n3)cc2F)c1` [Compound J80, (Z)-1-(2,6-Difluoro-4-(1-(4-(trifluoromethoxy)phenyl)-1H-1,2,4-triazol-3-yl)phenyl)-3-(3-(5-methyl-2-(4,4,4-trifluorobutoxy)phenyl)-4-oxothiazolidin-2-ylidene)urea], the pest or weed control at 50 µg/cm2 in data set [1] (setting [4]) and in data set [2] (setting [5]) was 50 to 100% each time.

On to `Cc1cc(-c2ncn(-c3ccc(OC(F)(F)F)cc3)n2)ccc1NC(=O)/N=C1\SCC(=O)N1c1cc(N(C)C)ccc1OCCC(F)(F)F` [Compound J102, (Z)-1-(3-(5-(Dimethylamino)-2-(3,3,3-trifluoropropoxy)phenyl)-4-oxothiazolidin-2-ylidene)-3-(2-methyl-4-(1-(4-(trifluoromethoxy)phenyl)-1H-1,2,4-triazol-3-yl)phenyl)urea], for which the pest or weed control at 50 µg/cm2 in data set [1] (setting [4]) and in data set [2] (setting [5]) was 50 to 100% in each case.

On to `Cc1ccc(OCC(F)(F)F)c(N2C(=O)CS/C2=N\C(=O)Nc2ccc(-c3ncn(-c4ccc(OC(F)(F)F)cc4)n3)cc2Br)c1` [Compound J218, (Z)-1-(2-Bromo-4-(1-(4-(trifluoromethoxy)phenyl)-1H-1,2,4-triazol-3-yl)phenyl)-3-(3-(5-methyl-2-(2,2,2-trifluoroethoxy)phenyl)-4-oxothiazolidin-2-ylidene)urea], for which the pest or weed control at 50 µg/cm2 in data set [1] (setting [4]) and in data set [2] (setting [5]) was 50 to 100% each time.

Turning to `Cc1ccc(COCC(F)(F)F)c(N2C(=O)CS/C2=N\C(=O)Nc2ccc(-c3ncn(-c4ccccc4)n3)cc2F)c1` [Compound J769, (Z)-1-(2-Fluoro-4-(1-phenyl-1H-1,2,4-triazol-3-yl)phenyl)-3-(3-(5-methyl-2-((2,2,2-trifluoroethoxy)methyl)phenyl)-4-oxothiazolidin-2-ylidene)urea], the pest or weed control at 50 µg/cm2 in data set [1] (read-out: BAW rating) and in data set [2] (setting [3]) was 50 to 100% each time.

As for `COC(C)c1ccc(C)cc1N1C(=O)CS/C1=N\C(=O)Nc1ccc(-c2cn(-c3ccc(S(F)(F)(F)(F)F)cc3)cn2)cc1F` (centres unmarked) [Compound J591, (Z)-1-(2-Fluoro-4-(1-(4-(pentafluoro-λ^6-sulfaneyl)phenyl)-1H-imidazol-4-yl)phenyl)-3-(3-(2-(1-methoxyethyl)-5-methylphenyl)-4-oxothiazolidin-2-ylidene)urea], the pest or weed control at 50 µg/cm2 in data set [1] (read-out: BAW rating) and in data set [2] (setting [3]) was 50 to 100% throughout.

As for `Cc1ccc(COCC(F)F)c(N2C(=O)CS/C2=N\C(=O)Nc2ccc(-n3cnc(-c4ccc(OC(F)(F)F)cc4)c3)cc2Cl)c1` [Compound J787, (Z)-1-(2-Chloro-4-(4-(4-(trifluoromethoxy)phenyl)-1H-imidazol-1-yl)phenyl)-3-(3-(2-((2,2-difluoroethoxy)methyl)-5-methylphenyl)-4-oxothiazolidin-2-ylidene)urea], the “BAW rating (% control or mortality class)” value in data set [1] (Table ABC, species BAW, 128-well diet tray assay, second instar larvae) is “A (50-100)”. In addition, the mortality at 50 µg/cm2 in data set [2] (Trichoplusia ni, Table ABC, species CL, 128-well diet tray assay, second instar larvae, read-out: CL rating (% control or mortality class)) fell in the range of 50 to 100%.

On to `CCN(CC)c1ccc(C(C)C)c(N2C(=O)CS/C2=N\C(=O)Nc2ccc(-c3ncn(-c4ccc(OC(F)(F)F)cc4)n3)cc2F)c1` [Compound J69, (Z)-1-(3-(5-(diethylamino)-2-isopropylphenyl)-4-oxothiazolidin-2-ylidene)-3-(2-fluoro-4-(1-(4-(trifluoromethoxy)phenyl)-1H-1,2,4-triazol-3-yl)phenyl)urea], for which the pest or weed control at 50 µg/cm2 in data set [1] (setting [4]) and in data set [2] (setting [5]) was 50 to 100% in each case.

`Cc1ccc(C(F)(F)F)c(N2C(=O)CS/C2=N\C(=O)NC(C)Cc2ccc(-c3ncn(-c4ccc(OC(F)(F)F)cc4)n3)cc2)c1` (centres unmarked) [Compound H4]: the pest or weed control at 50 µg/cm2 in data set [1] (setting [4]) and in data set [2] (setting [5]) was 50 to 100% throughout.

For `CC(C)c1cc(F)c(N(C)C)cc1N1C(=O)CS/C1=N\C(=O)Nc1ccc(-c2ncn(-c3ccc(S(=O)(=O)C(F)(F)F)cc3)n2)cc1F` [Compound J371, (Z)-1-(3-(5-(dimethylamino)-4-fluoro-2-isopropylphenyl)-4-oxothiazolidin-2-ylidene)-3-(2-fluoro-4-(1-(4-((trifluoromethyl)sulfonyl)phenyl)-1H-1,2,4-triazol-3-yl)phenyl)urea], the pest or weed control at 50 µg/cm2 in data set [1] (read-out: BAW rating) and in data set [2] (setting [3]) was 50 to 100% each time.

Consider `Cc1cc(-c2ncn(-c3ccc(OC(F)(F)C(F)(F)F)cc3)n2)ccc1NC(=O)/N=C1\SCC(=O)N1c1cccc(C)c1COCC(F)(F)F` [Compound J682], for which, in data set [1] (Table ABC, species BAW), the BAW rating entry is “A (50-100)”. In addition, the CL rating result in data set [2] (Table ABC, species CL) was “A (50-100)”.

A word on the mortality: it is the share of the test organisms that died.
